Data as given in article PMC12303054, “First-in-class inhibitors of Nsp15 endoribonuclease of SARS-CoV-2: Modeling, synthesis, and enzymatic assay of thiazolidinedione and rhodanine analogs” (The Journal of Biological Chemistry, 2025).

Key:
Format in all cases: biochemical
Conditions in all cases: 100 µM
[1] = molecular target: His250Ala SARS-CoV-2 Nsp15 (Severe acute respiratory syndrome coronavirus 2, UniProt P0DTD1, H6701A)
[2] = molecular target: Ser294Ala SARS-CoV-2 Nsp15 (Severe acute respiratory syndrome coronavirus 2, UniProt P0DTD1, S6745A)
[3] = molecular target: Tyr343Ala SARS-CoV-2 Nsp15 (Severe acute respiratory syndrome coronavirus 2, UniProt P0DTD1, Y6794A)
[4] = molecular target: Lys345Ala SARS-CoV-2 Nsp15 (Severe acute respiratory syndrome coronavirus 2, UniProt P0DTD1, K6796A)

Measured: residual activity retained

O=C1NC(=S)SC1=CC=Cc1ccnc2ccccc12 [KCO237, 5-(3-quinolin-4-yl-allylidene)-2-thioxo-thiazolidine-4-one]
approximately 50%: all assays above
